Test results from patent US12616760B2, “Synthetic cyclic peptide mimetics” (priority 2020, dated 2026).
Read-outs that look alike come from different tables or passages of the source. Square brackets hold non-standard residues; d marks the D form. Peptide text beside a SMILES is read from it. Nle = CCCC[C@H](N)C(=O)O; azaGly = NNC(=O)O

Tests used:
Aβ40 = target: T1, Aβ40 (Homo sapiens, UniProt P05067); assay: Thioflavin T (ThT) fluorescence assay of Aβ40 aggregation; assay type: biochemical; conditions: for Inhibition of amyloidogenic activity(%) / Inhibition of amyloidogenic activity: ThT; for Inhibition of amyloidogenic activity: Table 4
T1 construct: The extent of Aβ40 aggregation in the presence of increasing concentrations of azacyclopeptides
T1 sequence (P05067 672-711 limits assumed): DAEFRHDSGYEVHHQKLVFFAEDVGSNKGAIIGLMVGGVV
Procedure: Amyloid generation can be identified and quantified using the thioflavin T (ThT) fluorescence dye assay. […] Agents that bind and inhibit aggregation of Aβ diminish ThT fluorescence relative to untreated Aβ. The extent of Aβ40 aggregation in the presence of increasing concentrations of azacyclopeptides and azasulfurylcyclopeptide 55 was evaluated by the ThT assay. Fluorescence of Aβ40 that was aged for 48 h was used as control, defined as 0% anti-amyloidogenic activity, and compared with fluorescence in the presence of cyclic peptide mimics at increasing concentrations to measure anti-amyloidogenic activity.

[1] = tested on: rat pheochromocytoma PC12 cells; assay type: cell-based; set-up: Cells survival (%): concentration or dose not given beside the values; conditions: for Cells survival (%): PC12, MTT
Procedure: Considering that self-assembly and aggregation of Aβ are key components of AD pathogenesis, the ability of azaGly-cyclopeptides 2-7 to reduce Aβ-induced toxicity was next tested in rat pheochromocytoma PC12 cells. Cells were incubated for 24 h with Aβ40 (10 μM) that had been aged for 48 h in the presence and absence of increasing concentrations of the azacyclopeptides. Cell viability was assessed using the 3-(4,5-dimethylthiazol-2-yl)-2,5-diphenyltetrazolium bromide (MTT) survival assay (Table 2). In this assay, viable cells reduce permeable MTT by active metabolism to produce a purple-colored formazan product with absorbance maximum near 570 nm. Dead cells lose the ability to convert MTT into formazan. The quantity of formazan is therefore directly proportional to the number of viable cells and measurable over time by recording changes in absorbance using a spectrophotometer. Neurons are susceptible to the lethal effects of misfolded proteins which are likely to aggregate at increased concentration. The pheochromocytoma (PC12) cell line is commonly used in in vitro studies to examine neuronal variation and neurotoxicity as a model of neurodegenerative disease.

[2] = Aβ:peptide 1:1, 10 μM soluble Aβ40
[3] = Aβ:peptide 1:5, 10 μM soluble Aβ40
[4] = Aβ:peptide 1:10, 10 μM soluble Aβ40
[5] = Aβ:peptide 1:0.1, 10 μM soluble Aβ40

Compound | Inhibition of amyloidogenic activity (Aβ40; Aβ:peptide 1:1) | Inhibition of amyloidogenic activity (Aβ40; Aβ:peptide 1:5) | Inhibition of amyloidogenic activity (Aβ40; Aβ:peptide 1:10) | Inhibition of amyloidogenic activity(%) (Aβ40; Table 5, Aβ:peptide 1:1) | Inhibition of amyloidogenic activity(%) (Aβ40; Table 5, Aβ:peptide 1:5) | Inhibition of amyloidogenic activity(%) (Aβ40; Table 5, Aβ:peptide 1:10) | Cells survival (%) ([1]; Table 5, Aβ:peptide 1:1) | Cells survival (%) ([1]; Table 5, Aβ:peptide 1:5) | Cells survival (%) ([1]; Table 4, Aβ:peptide 1:1) | Cells survival (%) ([1]; Table 4, Aβ:peptide 1:5) | other results
CCCC[C@@H]1NC(=O)[C@@H](CC(C)C)NC(=O)[C@H](CCCCN)NC(=O)[C@@H](CO)NC(=O)[C@H](Cc2c[nH]cn2)NC(=O)[C@@H](Cc2c[nH]c3ccccc23)NC1=O [Compound 1, Cyclo-L-lysine-D-leucine-L-norleucine-D-tryptophan-L-histidine-D-serine, reference compound] (cyclo(K[dL][Nle][dW]H[dS])) | 44.6% | 84.7% | 92.8% | 44.6% | 84.7% | 92.8% | – | – | – | – | Inhibition of amyloidogenic activity(%) (Aβ40; [2]): 44.6%; Inhibition of amyloidogenic activity(%) (Aβ40; [3]): 84.7%; Inhibition of amyloidogenic activity(%) (Aβ40; [4]): 92.8%
CCCC[C@@H]1NC(=O)[C@@H](CC(C)C)NC(=O)NNC(=O)[C@@H](CO)NC(=O)[C@H](Cc2c[nH]cn2)NC(=O)[C@@H](Cc2c[nH]c3ccccc23)NC1=O [Compound 2, c(D-Leu-L-Nle-D-Trp-L-His-D-Ser-Gly*)] (cyclo([azaGly][dL][Nle][dW]H[dS])) | – | – | – | – | – | – | – | – | – | – | cell survival ([1]; 24 h): 87%; Inhibition of amyloidogenic activity(%) (Aβ40; [5]): 63.9%; Inhibition of amyloidogenic activity(%) (Aβ40; [2]): 76.7%; effect on lag phase and ThT fluorescence (Aβ40; above stoichiometric concentrations): promoted significantly fibrilization of Aβ shortening the lag-phase and increasing ThT fluorescence; effect on lag phase and ThT fluorescence (Aβ40; at and below stoichiometric concentrations): prolonged dramatically the lag-phase and reduced ThT fluorescence
CCCC[C@@H]1NC(=O)[C@@H](CC(C)C)NC(=O)[C@H](CCCCN)NC(=O)[C@@H](CO)NC(=O)NNC(=O)[C@@H](Cc2c[nH]c3ccccc23)NC1=O [Compound 4, c(D-Leu-L-Nle-D-Trp-Gly*-D-Ser-L-Lys)] (cyclo(K[dL][Nle][dW][azaGly][dS])) | – | – | – | – | – | – | – | – | – | – | Inhibition of amyloidogenic activity(%) (Aβ40; [2]): 50.2%; Inhibition of amyloidogenic activity(%) (Aβ40; [3]): 75%; Inhibition of amyloidogenic activity(%) (Aβ40; [4]): 68.8%
CCCC[C@@H]1NC(=O)[C@@H](CC(C)C)NC(=O)[C@H](CCCCN)NC(=O)[C@@H](CO)NC(=O)[C@H](Cc2c[nH]cn2)NC(=O)NNC1=O [Compound 5, c(D-Leu-L-Nle-Gly*-L-His-D-Ser-L-Lys)] (cyclo(K[dL][Nle][azaGly]H[dS])) | – | – | – | – | – | – | – | – | – | – | Inhibition of amyloidogenic activity(%) (Aβ40; [5]): 55.3%; Inhibition of amyloidogenic activity(%) (Aβ40; [2]): 89.8%; Inhibition of amyloidogenic activity(%) (Aβ40; [3]): 91.1%; Inhibition of amyloidogenic activity(%) (Aβ40; [4]): 90.8%; effect on lag phase and ThT fluorescence (Aβ40; incubation with Aβ): dramatically prolonged the lag phase and reduced the ThT fluorescence
CC(C)C[C@H]1NC(=O)[C@H](CCCCN)NC(=O)[C@@H](CO)NC(=O)[C@H](Cc2c[nH]cn2)NC(=O)[C@@H](Cc2c[nH]c3ccccc23)NC(=O)NNC1=O [Compound 6, c(D-Leu-Gly*-D-Trp-L-His-D-Ser-L-Lys)] (cyclo(K[dL][azaGly][dW]H[dS])) | – | – | – | – | – | – | – | – | – | – | Inhibition of amyloidogenic activity(%) (Aβ40; [3]): 80.1%; Inhibition of amyloidogenic activity(%) (Aβ40; [4]): 81.8%; effect on lag phase and ThT fluorescence (Aβ40; incubation with Aβ): dramatically prolonged the lag phase and reduced the ThT fluorescence
CCCC[C@@H]1NC(=O)NNC(=O)[C@H](CCCCN)NC(=O)[C@@H](CO)NC(=O)[C@H](Cc2c[nH]cn2)NC(=O)[C@@H](Cc2c[nH]c3ccccc23)NC1=O [Compound 7, c(Gly*-L-Nle-D-Trp-L-His-D-Ser-L-Lys)] (cyclo(K[azaGly][Nle][dW]H[dS])) | – | – | – | – | – | – | – | – | – | – | Inhibition of amyloidogenic activity(%) (Aβ40; [3]): 78.8%; Inhibition of amyloidogenic activity(%) (Aβ40; [4]): 80.5%; effect on lag phase and ThT fluorescence (Aβ40; incubation with Aβ): dramatically prolonged the lag phase and reduced the ThT fluorescence
c(4-Phe*-L-Nlc-D-Trp-L-His-D-Ser-L-Lys) [Compound 20] | – | – | – | 1.6% | 48.4% | 68.4% | 73.0% | 84.9% | – | – | –
c(D-Leu-L-Nle-D-Trp-D-His-IPrTyr*-L-Lys) [Compound 11] | – | – | – | 3.5% | 54.7% | 54.2% | 72.4% | 74.3% | – | – | –
c(D-Leu-L-Nle-D-Trp-L-His-D-Ser-Lys*) [Compound 8] | 54.4% | 77.8% | 80.9% | – | – | – | – | – | 80.1% | 91.3% | –
c(D-Leu-L-Nle-D-Trp-L-His-Gly^-L-Lys) [Compound 55] | – | – | – | – | – | – | 76.9% | 106% | – | – | –
c(D-Leu-L-Nle-D-Trp-L-His-Hse*-L-Lys) [Compound 9] | 8.3% | 77.9% | 77.2% | – | – | – | – | – | 82.8% | 97.9% | –
c(D-Leu-L-Nle-D-Trp-L-His-IPrTyr*-L-Lys) [Compound 10] | – | – | – | 8.2% | 85.2% | 86.2% | 75.4% | 83.4% | – | – | –
c(D-Leu-L-Nle-D-Trp-Phe*-D-Ser-L-Lys) [Compound 12] | – | – | – | 54.4% | 77.7% | 80.9% | 70.1% | 87.9% | – | – | –
c(D-Leu-L-Nle-D-Trp-Pra*-D-Ser-L-Lys) [Compound 14] | – | – | – | 76.9% | 81.2% | 81.4% | 71.7% | 83.5% | – | – | –
c(D-Leu-L-Nle-D-Trp-Tal*-D-Ser-L-Lys) [Compound 13] | 58.0% | 72.6% | 78.4% | – | – | – | – | – | 70.8% | 96.3% | –
c(D-Leu-L-Nle-Itr*-L-His-D-Ser-L-Lys) [Compound 15] | 78.0% | 81.6% | 86.1% | – | – | – | – | – | 78.8% | 71.7% | –
c(D-Leu-Nle*-D-Trp-L-His-D-Ser-L-Lys) [Compound 16] | 72.9% | 76.4% | 85.1% | – | – | – | – | – | 86.3% | 94.5% | –
c(D-Leu-Phe*-D-Trp-L-His-D-Ser-L-Lys) [Compound 17] | – | – | – | 3.5% | 36.9% | 79.8% | 61.8% | 69.5% | – | – | –
c(Leu*-L-Nlc-D-Trp-L-His-D-Ser-L-Lys) [Compound 18] | 15.4% | 17.1% | 37.5% | – | – | – | – | – | 72.8% | 76.3% | –
c(Phe*-L-Nle-D-Trp-L-His-D-Ser-L-Lys) [Compound 19] | – | – | – | 12.5% | 54.5% | 61.2% | 73.0% | 74.5% | – | – | –
